Measurements reported in patent US20100298141A1, “SUBSTITUTED PYRIDINE N-OXIDE HERBICIDES” (E. I. DU PONT DE NEMOURS AND COMPANY, priority 2007, published 2010).

Assays:
Assay in all cases: Test F preemergence test
[1] = test system: bermudagrass; assay type: in vivo, Cynodon dactylon; conditions: scale 0 to 100
Source text: (§1) Seeds of plant species selected from bermudagrass (Cynodon dactylon), Surinam grass (Brachiaria decumbens), large crabgrass (Digitaria sanguinalis), green foxtail (Setaria viridis), goosegrass (Eleusine indica), johnsongrass (Sorghum halepense), kochia (Kochia scoparia), pitted morningglory (Ipomoea lacunosa), purple nutsedge (Cyperus rotundus), common ragweed (Ambrosia elation), mustard (Brassica nigra), guineagrass (Panicum maximum), […] (Paspalum dilatatum), barnyardgrass (Echinochloa crus-galli), southern sandbur (Cenchrus echinatus), common sowthistle (Sonchus oleraceous), prickly […] spinosa), Italian ryegrass (Lolium multiflorum), common purslane (Portulaca oleracea), broadleaf signalgrass (Brachiaria platyphylla), common groundsel (Senecio vulgaris), common chickweed (Stellaria media), Virginia dayflower (Commelina virginica), annual bluegrass (Poa annua), naked crabgrass (Digitaria nuda), […] cochinchinensis), quackgrass (Elytrigia repens), Canada horseweed (Conyza canadensis), field bindweed (Convolvulus arvensis), […] (Bidens bipinnata), common mallow (Malva sylvestris), Russian thistle (Salsola kali), and sugarcane (Saccharum officinarum) were planted and treated preemergence with test chemicals formulated in a non-phytotoxic solvent mixture which included a surfactant. At a different time, sugarcane was treated with postemergence applications of some of the test chemicals formulated in the same manner. Plants were approximately 3- to 4-leaf stage for the postemergence treatments. Treated plants and controls were maintained in a greenhouse for 14 to 21 days, after which time all species were compared to controls and visually evaluated. […] A dash (-) response means no test result.

[2] = test system: kochia; assay type: in vivo, Kochia scoparia; conditions: scale 0 to 100
Source text: as §1

[3] = test system: purple nutsedge; assay type: in vivo, Cyperus rotundus; conditions: scale 0 to 100
Source text: as §1

[4] = test system: mustard; assay type: in vivo, Brassica nigra; conditions: scale 0 to 100
Source text: as §1

[5] = test system: guineagrass; assay type: in vivo, Panicum maximum; conditions: scale 0 to 100
Source text: as §1

[6] = test system: dallisgrass; assay type: in vivo, Paspalum dilatatum; conditions: scale 0 to 100
Source text: as §1

[7] = test system: barnyardgrass; assay type: in vivo, Echinochloa crus-galli
Source text: as §1

[8] = test system: prickly sida; assay type: in vivo, Sida spinosa; conditions: scale 0 to 100
Source text: as §1

[9] = test system: common purslane; assay type: in vivo, Portulaca oleracea; conditions: scale 0 to 100
Source text: as §1

[10] = test system: broadleaf signalgrass; assay type: in vivo, Brachiaria platyphylla; conditions: scale 0 to 100; for Signalgrass plant response rating: 125 g ai/ha
Source text: as §1

[11] = test system: common groundsel; assay type: in vivo, Senecio vulgaris; conditions: scale 0 to 100
Source text: as §1

[12] = test system: Virginia dayflower; assay type: in vivo, Commelina virginica; conditions: scale 0 to 100
Source text: as §1

[13] = test system: annual bluegrass; assay type: in vivo, Poa annua; conditions: scale 0 to 100
Source text: as §1

[14] = test system: naked crabgrass; assay type: in vivo, Digitaria nuda; conditions: scale 0 to 100
Source text: as §1

[15] = test system: quackgrass; assay type: in vivo, Elytrigia repens; conditions: scale 0 to 100
Source text: as §1

[16] = 16 g ai/ha, preemergence, scale 0 to 100 (0 no effect, 100 complete control)
[17] = 125 g ai/ha, preemergence, scale 0 to 100
[18] = Preemergence, 31 g ai/ha, scale 0 to 100

SMILES: CC(Oc1c(CS(=O)(=O)c2cccc[n+]2[O-])c(C(F)(F)F)nn1C)C(F)(F)F (stereo not drawn) [Compound 82]
- Plant response rating, Bermudagrass ([1]; 16 g ai/ha, preemergence): 0
- Bermudagrass plant response rating ([1]; 125 g ai/ha, preemergence): 100
- Plant response rating, Bermudagrass ([1]; Preemergence, 62 g ai/ha): 90
- Plant response rating, Bermudagrass ([1]; Preemergence, 31 g ai/ha): 80
- Plant response rating, Kochia ([2]; 16 g ai/ha, preemergence): 100
- Kochia plant response rating ([2]; 125 g ai/ha, preemergence): 100
- Plant response rating, Kochia ([2]; Preemergence, 62 g ai/ha): 100
- Plant response rating, Kochia ([2]; Preemergence, 31 g ai/ha): 100
- Plant response rating, Purple Nutsedge ([3]; 16 g ai/ha, preemergence): 0
- Purple Nutsedge plant response rating ([3]; 125 g ai/ha, preemergence): 50
- Plant response rating, Purple Nutsedge ([3]; Preemergence, 62 g ai/ha): 30
- Plant response rating, Black Mustard ([4]; 16 g ai/ha, preemergence): 0
- Black Mustard plant response rating ([4]; 125 g ai/ha, preemergence): 100
- Plant response rating, Black Mustard ([4]; Preemergence, 62 g ai/ha): 50
- Plant response rating, Black Mustard ([4]; Preemergence, 31 g ai/ha): 0
- Plant response rating, Guineagrass ([5]; 16 g ai/ha, preemergence): 70
- Guineagrass plant response rating ([5]; 125 g ai/ha, preemergence): 100
- Plant response rating, Guineagrass ([5]; Preemergence, 62 g ai/ha): 95
- Plant response rating, Guineagrass ([5]; Preemergence, 31 g ai/ha): 70
- Plant response rating, Dallisgrass ([6]; 16 g ai/ha, preemergence): 20
- Dallisgrass plant response rating ([6]; 125 g ai/ha, preemergence): 90
- Plant response rating, Dallisgrass ([6]; Preemergence, 62 g ai/ha): 40
- Plant response rating, Dallisgrass ([6]; Preemergence, 31 g ai/ha): 20
- Plant response rating, Barnyardgrass [7, 16]: 50
- Barnyardgrass plant response rating [7, 17]: 100
- Plant response rating, Barnyardgrass ([7]; Preemergence, 62 g ai/ha, scale 0 to 100): 80
- Plant response rating, Barnyardgrass [7, 18]: 70
- Plant response rating, Prickly Sida ([8]; 16 g ai/ha, preemergence): 0
- Prickly Sida plant response rating ([8]; 125 g ai/ha, preemergence): 75
- Plant response rating, Prickly Sida ([8]; Preemergence, 62 g ai/ha): 15
- Plant response rating, Prickly Sida ([8]; Preemergence, 31 g ai/ha): 0
- Plant response rating, Purslane ([9]; 16 g ai/ha, preemergence): 0
- Purslane plant response rating ([9]; 125 g ai/ha, preemergence): 35
- Plant response rating, Purslane ([9]; Preemergence, 62 g ai/ha): 30
- Plant response rating, Signalgrass ([10]; 16 g ai/ha, preemergence): 50
- Signalgrass plant response rating ([10]; preemergence): 100
- Plant response rating, Signalgrass ([10]; Preemergence, 62 g ai/ha): 100
- Plant response rating, Signalgrass ([10]; Preemergence, 31 g ai/ha): 50
- Plant response rating, Groundsel ([11]; 16 g ai/ha, preemergence): 0
- Groundsel plant response rating ([11]; 125 g ai/ha, preemergence): 90
- Plant response rating, Groundsel ([11]; Preemergence, 62 g ai/ha): 30
- Plant response rating, Groundsel ([11]; Preemergence, 31 g ai/ha): 0
- Dayflower plant response rating ([12]; 125 g ai/ha, preemergence): 100
- Plant response rating, Dayflower ([12]; Preemergence, 62 g ai/ha): 90
- Plant response rating, Bluegrass ([13]; 16 g ai/ha, preemergence): 0
- Bluegrass plant response rating ([13]; 125 g ai/ha, preemergence): 100
- Plant response rating, Bluegrass ([13]; Preemergence, 62 g ai/ha): 70
- Plant response rating, Bluegrass ([13]; Preemergence, 31 g ai/ha): 60
- Plant response rating, Crabgrass, Naked ([14]; 16 g ai/ha, preemergence): 35
- Crabgrass, Naked plant response rating ([14]; 125 g ai/ha, preemergence): 100
- Plant response rating, Crabgrass, Naked ([14]; Preemergence, 62 g ai/ha): 100
- Plant response rating, Crabgrass, Naked ([14]; Preemergence, 31 g ai/ha): 98
- Plant response rating, Quackgrass ([15]; 16 g ai/ha, preemergence): 70
- Quackgrass plant response rating ([15]; 125 g ai/ha, preemergence): 100
- Plant response rating, Quackgrass ([15]; Preemergence, 62 g ai/ha): 95
- Plant response rating, Quackgrass ([15]; Preemergence, 31 g ai/ha): 70

SMILES: Cc1cc([S+]([O-])Cc2c(C(F)(F)F)nn(C)c2OCC(F)(F)F)[n+]([O-])cc1Cl (stereo not drawn) [Compound 70]
- Plant response rating, Bermudagrass ([1]; 16 g ai/ha, preemergence): 40
- Bermudagrass plant response rating ([1]; 62 g ai/ha, Preemergence): 98
- Bermudagrass plant response rating ([1]; 125 g ai/ha, preemergence): 100
- Plant response rating, Bermudagrass ([1]; Preemergence, 31 g ai/ha): 80
- Plant response rating, Kochia ([2]; 16 g ai/ha, preemergence): 95
- Kochia plant response rating ([2]; 62 g ai/ha, Preemergence): 100
- Kochia plant response rating ([2]; 125 g ai/ha, preemergence): 100
- Plant response rating, Kochia ([2]; Preemergence, 31 g ai/ha): 95
- Plant response rating, Purple Nutsedge ([3]; 16 g ai/ha, preemergence): 0
- Purple Nutsedge plant response rating ([3]; 62 g ai/ha, Preemergence): 20
- Purple Nutsedge plant response rating ([3]; 125 g ai/ha, preemergence): 40
- Plant response rating, Purple Nutsedge ([3]; Preemergence, 31 g ai/ha): 15
- Plant response rating, Black Mustard ([4]; 16 g ai/ha, preemergence): 90
- Black Mustard plant response rating ([4]; 62 g ai/ha, Preemergence): 100
- Black Mustard plant response rating ([4]; 125 g ai/ha, preemergence): 100
- Plant response rating, Black Mustard ([4]; Preemergence, 31 g ai/ha): 90
- Plant response rating, Guineagrass ([5]; 16 g ai/ha, preemergence): 100
- Guineagrass plant response rating ([5]; 62 g ai/ha, Preemergence): 100
- Guineagrass plant response rating ([5]; 125 g ai/ha, preemergence): 100
- Plant response rating, Guineagrass ([5]; Preemergence, 31 g ai/ha): 100
- Dallisgrass plant response rating ([6]; 62 g ai/ha, Preemergence): 75
- Dallisgrass plant response rating ([6]; 125 g ai/ha, preemergence): 98
- Plant response rating, Dallisgrass ([6]; Preemergence, 31 g ai/ha): 25
- Plant response rating, Barnyardgrass [7, 16]: 60
- Barnyardgrass plant response rating ([7]; 62 g ai/ha, Preemergence, scale 0 to 100): 95
- Barnyardgrass plant response rating [7, 17]: 100
- Plant response rating, Barnyardgrass [7, 18]: 70
- Plant response rating, Prickly Sida ([8]; 16 g ai/ha, preemergence): 60
- Prickly Sida plant response rating ([8]; 62 g ai/ha, Preemergence): 90
- Prickly Sida plant response rating ([8]; 125 g ai/ha, preemergence): 90
- Plant response rating, Prickly Sida ([8]; Preemergence, 31 g ai/ha): 80
- Purslane plant response rating ([9]; 62 g ai/ha, Preemergence): 75
- Purslane plant response rating ([9]; 125 g ai/ha, preemergence): 75
- Plant response rating, Purslane ([9]; Preemergence, 31 g ai/ha): 35
- Signalgrass plant response rating ([10]; preemergence): 90
- Plant response rating, Signalgrass ([10]; Preemergence, 62 g ai/ha): 90
- Groundsel plant response rating ([11]; 62 g ai/ha, Preemergence): 98
- Groundsel plant response rating ([11]; 125 g ai/ha, preemergence): 100
- Plant response rating, Groundsel ([11]; Preemergence, 31 g ai/ha): 98
- Plant response rating, Dayflower ([12]; 16 g ai/ha, preemergence): 90
- Dayflower plant response rating ([12]; 62 g ai/ha, Preemergence): 100
- Dayflower plant response rating ([12]; 125 g ai/ha, preemergence): 100
- Plant response rating, Dayflower ([12]; Preemergence, 31 g ai/ha): 100
- Plant response rating, Bluegrass ([13]; 16 g ai/ha, preemergence): 65
- Bluegrass plant response rating ([13]; 62 g ai/ha, Preemergence): 95
- Bluegrass plant response rating ([13]; 125 g ai/ha, preemergence): 100
- Plant response rating, Bluegrass ([13]; Preemergence, 31 g ai/ha): 75
- Plant response rating, Crabgrass, Naked ([14]; 16 g ai/ha, preemergence): 90
- Crabgrass, Naked plant response rating ([14]; 62 g ai/ha, Preemergence): 100
- Crabgrass, Naked plant response rating ([14]; 125 g ai/ha, preemergence): 100
- Plant response rating, Crabgrass, Naked ([14]; Preemergence, 31 g ai/ha): 90
- Plant response rating, Quackgrass ([15]; 16 g ai/ha, preemergence): 75
- Quackgrass plant response rating ([15]; 62 g ai/ha, Preemergence): 95
- Quackgrass plant response rating ([15]; 125 g ai/ha, preemergence): 100
- Plant response rating, Quackgrass ([15]; Preemergence, 31 g ai/ha): 75
